# Assay results taken from PubChem BioAssay (NCI).
#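 Compound exposure: 48 hours, 5 concentrations, 96-well plates. TGI denotes the concentration required for complete inhibition of growth.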
# What was measured:
# Experiment in all cases: inhibition of tumour cell growth, NCI panel, 48 h
# NCI-H23 lung = system: NCI-H23 lung
# SNB-19 CNS = system: SNB-19 CNS
# U251 CNS = system: U251 CNS
# M14 melanoma = system: M14 melanoma
# A549 NSCLC = system: A549 NSCLC
# SK-MEL-5 melanoma = system: SK-MEL-5 melanoma
# SF-268 CNS = system: SF-268 CNS
# HCT-15 colon = system: HCT-15 colon
# LOX IMVI melanoma = system: LOX IMVI melanoma
# OVCAR-3 ovarian = system: OVCAR-3 ovarian
# PC-3 prostate = system: PC-3 prostate
# SR leukemia = system: SR leukemia
# SNB-75 CNS = system: SNB-75 CNS
# DU-145 prostate = system: DU-145 prostate
# SN12C renal = system: SN12C renal
# CCRF-CEM leukemia = system: CCRF-CEM leukemia
# 786-0 renal = system: 786-0 renal
# COLO 205 colon = system: COLO 205 colon
# HOP-62 NSCLC = system: HOP-62 NSCLC
# OVCAR-4 ovarian = system: OVCAR-4 ovarian
# MDA-MB-231 breast = system: MDA-MB-231 breast
# MCF7 breast = system: MCF7 breast
# HCT-116 colon = system: HCT-116 colon
# T-47D breast = system: T-47D breast
# SK-MEL-2 melanoma = system: SK-MEL-2 melanoma
# NCI/ADR-RES ovarian = system: NCI/ADR-RES ovarian
# MOLT-4 leukemia = system: MOLT-4 leukemia
# KM12 colon = system: KM12 colon
# HL-60(TB) leukemia = system: HL-60(TB) leukemia
# NCI-H522 lung = system: NCI-H522 lung
# MDA-N = system: MDA-N
# IGROV1 ovarian = system: IGROV1 ovarian
# HS 578T breast = system: HS 578T breast
# RPMI-8226 leukemia = system: RPMI-8226 leukemia
# MALME-3M melanoma = system: MALME-3M melanoma
# ACHN renal = system: ACHN renal
# EKVX NSCLC = system: EKVX NSCLC
# HOP-92 NSCLC = system: HOP-92 NSCLC
# SK-OV-3 ovarian = system: SK-OV-3 ovarian
# NCI-H226 lung = system: NCI-H226 lung
# OVCAR-8 ovarian = system: OVCAR-8 ovarian
# BT-549 breast = system: BT-549 breast
# HT29 colon = system: HT29 colon
# A498 renal = system: A498 renal
# OVCAR-5 ovarian = system: OVCAR-5 ovarian
# SK-MEL-28 melanoma = system: SK-MEL-28 melanoma
# SF-539 CNS = system: SF-539 CNS
# HCC-2998 colon = system: HCC-2998 colon
# UACC-62 melanoma = system: UACC-62 melanoma
# SF-295 CNS = system: SF-295 CNS
# TK-10 renal = system: TK-10 renal
# SW-620 colon = system: SW-620 colon
# UO-31 renal = system: UO-31 renal
# MDA-MB-435 = system: MDA-MB-435
# NCI-H460 lung = system: NCI-H460 lung
# CAKI-1 renal = system: CAKI-1 renal
# RXF 393 renal = system: RXF 393 renal
# UACC-257 melanoma = system: UACC-257 melanoma
# K-562 leukemia = system: K-562 leukemia
smiles,measurement,setting,value
CSc1nc(SC)c2c(C)cn(Cc3ccccc3)c2n1,TGI,NCI-H23 lung,> 100 µM
same,TGI,SNB-19 CNS,> 100 µM
same,TGI,U251 CNS,> 100 µM
same,TGI,M14 melanoma,> 100 µM
same,TGI,A549 NSCLC,> 100 µM
same,TGI,SK-MEL-5 melanoma,> 100 µM
same,TGI,SF-268 CNS,> 100 µM
same,TGI,HCT-15 colon,> 100 µM
same,TGI,LOX IMVI melanoma,> 100 µM
same,TGI,OVCAR-3 ovarian,> 100 µM
same,TGI,PC-3 prostate,> 100 µM
same,TGI,SR leukemia,> 100 µM
same,TGI,SNB-75 CNS,> 100 µM
same,TGI,DU-145 prostate,> 100 µM
same,TGI,SN12C renal,> 100 µM
same,TGI,CCRF-CEM leukemia,> 100 µM
same,TGI,786-0 renal,> 100 µM
same,TGI,COLO 205 colon,> 100 µM
same,TGI,HOP-62 NSCLC,> 100 µM
same,TGI,OVCAR-4 ovarian,> 100 µM
same,TGI,MDA-MB-231 breast,> 100 µM
same,TGI,MCF7 breast,> 100 µM
same,TGI,HCT-116 colon,> 100 µM
same,TGI,T-47D breast,> 100 µM
same,TGI,SK-MEL-2 melanoma,> 100 µM
same,TGI,NCI/ADR-RES ovarian,> 100 µM
same,TGI,MOLT-4 leukemia,> 100 µM
same,TGI,KM12 colon,> 100 µM
same,TGI,HL-60(TB) leukemia,> 100 µM
same,TGI,NCI-H522 lung,> 100 µM
same,TGI,MDA-N,> 100 µM
same,TGI,IGROV1 ovarian,> 100 µM
same,TGI,HS 578T breast,> 100 µM
same,TGI,RPMI-8226 leukemia,> 100 µM
same,TGI,MALME-3M melanoma,> 100 µM
same,TGI,ACHN renal,> 100 µM
same,TGI,EKVX NSCLC,> 100 µM
same,TGI,HOP-92 NSCLC,> 100 µM
same,TGI,SK-OV-3 ovarian,> 100 µM
same,TGI,NCI-H226 lung,> 100 µM
same,TGI,OVCAR-8 ovarian,> 100 µM
same,TGI,BT-549 breast,> 100 µM
same,TGI,HT29 colon,> 100 µM
same,TGI,A498 renal,> 100 µM
same,TGI,OVCAR-5 ovarian,> 100 µM
same,TGI,SK-MEL-28 melanoma,> 100 µM
same,TGI,SF-539 CNS,> 100 µM
same,TGI,HCC-2998 colon,> 100 µM
same,TGI,UACC-62 melanoma,> 100 µM
same,TGI,SF-295 CNS,> 100 µM
same,TGI,TK-10 renal,> 100 µM
same,TGI,SW-620 colon,> 100 µM
same,TGI,UO-31 renal,> 100 µM
same,TGI,MDA-MB-435,> 100 µM
same,TGI,NCI-H460 lung,> 100 µM
same,TGI,CAKI-1 renal,> 100 µM
COc1cc(C)cc(C(=O)OCc2ccccc2)c1C1=C(Cl)C(=O)C(Cl)=CC1=O,TGI,NCI-H23 lung,> 10 µM
same,TGI,SNB-19 CNS,> 10 µM
same,TGI,RXF 393 renal,> 10 µM
same,TGI,U251 CNS,> 10 µM
same,TGI,M14 melanoma,> 10 µM
same,TGI,A549 NSCLC,> 10 µM
same,TGI,SK-MEL-5 melanoma,> 10 µM
same,TGI,SF-268 CNS,> 10 µM
same,TGI,HCT-15 colon,> 10 µM
same,TGI,LOX IMVI melanoma,> 10 µM
same,TGI,OVCAR-3 ovarian,> 10 µM
same,TGI,PC-3 prostate,> 10 µM
same,TGI,SR leukemia,> 7.85 µM
same,TGI,SNB-75 CNS,> 10 µM
same,TGI,DU-145 prostate,> 10 µM
same,TGI,SN12C renal,> 10 µM
same,TGI,CCRF-CEM leukemia,4.76 µM
same,TGI,786-0 renal,> 10 µM
same,TGI,COLO 205 colon,> 10 µM
same,TGI,HOP-62 NSCLC,> 10 µM
same,TGI,OVCAR-4 ovarian,> 9 µM
same,TGI,MDA-MB-231 breast,> 10 µM
same,TGI,MCF7 breast,> 10 µM
same,TGI,HCT-116 colon,> 10 µM
same,TGI,T-47D breast,> 10 µM
same,TGI,UACC-257 melanoma,> 10 µM
same,TGI,SK-MEL-2 melanoma,> 10 µM
same,TGI,NCI/ADR-RES ovarian,> 10 µM
same,TGI,MOLT-4 leukemia,5.29 µM
same,TGI,KM12 colon,> 10 µM
same,TGI,HL-60(TB) leukemia,2.55 µM
same,TGI,NCI-H522 lung,3.69 µM
same,TGI,MDA-N,> 10 µM
same,TGI,IGROV1 ovarian,> 10 µM
same,TGI,HS 578T breast,> 10 µM
same,TGI,RPMI-8226 leukemia,> 10 µM
same,TGI,MALME-3M melanoma,> 10 µM
same,TGI,ACHN renal,> 10 µM
same,TGI,EKVX NSCLC,> 10 µM
same,TGI,HOP-92 NSCLC,9.92 µM
same,TGI,SK-OV-3 ovarian,> 10 µM
same,TGI,NCI-H226 lung,> 10 µM
same,TGI,OVCAR-8 ovarian,> 10 µM
same,TGI,BT-549 breast,> 10 µM
same,TGI,HT29 colon,> 10 µM
same,TGI,OVCAR-5 ovarian,> 10 µM
same,TGI,SK-MEL-28 melanoma,> 10 µM
same,TGI,SF-539 CNS,> 10 µM
same,TGI,HCC-2998 colon,> 10 µM
same,TGI,UACC-62 melanoma,> 10 µM
same,TGI,K-562 leukemia,5.37 µM
same,TGI,SF-295 CNS,> 10 µM
same,TGI,TK-10 renal,> 10 µM
same,TGI,SW-620 colon,> 10 µM
same,TGI,UO-31 renal,> 10 µM
same,TGI,MDA-MB-435,> 10 µM
same,TGI,NCI-H460 lung,> 10 µM
same,TGI,CAKI-1 renal,> 10 µM
C/C(=N/NC(=S)Nc1ccccc1C)c1ccccn1,TGI,NCI-H23 lung,27.2 µM
same,TGI,SNB-19 CNS,54.8 µM
same,TGI,RXF 393 renal,13.2 µM
same,TGI,U251 CNS,18.1 µM
same,TGI,M14 melanoma,5.7 µM
same,TGI,A549 NSCLC,18.5 µM
same,TGI,SK-MEL-5 melanoma,2.31 µM
same,TGI,SF-268 CNS,30.9 µM
same,TGI,HCT-15 colon,18.3 µM
same,TGI,LOX IMVI melanoma,15.7 µM
same,TGI,OVCAR-3 ovarian,9.47 µM
same,TGI,PC-3 prostate,19.5 µM
same,TGI,SR leukemia,> 4.64 µM
same,TGI,SNB-75 CNS,16.3 µM
same,TGI,DU-145 prostate,11.3 µM
same,TGI,SN12C renal,6.51 µM
same,TGI,CCRF-CEM leukemia,14.4 µM
same,TGI,786-0 renal,18 µM
same,TGI,COLO 205 colon,2.56 µM
same,TGI,HOP-62 NSCLC,8.99 µM
same,TGI,OVCAR-4 ovarian,18.5 µM
same,TGI,MDA-MB-231 breast,14.9 µM
same,TGI,MCF7 breast,12.8 µM
same,TGI,HCT-116 colon,12.9 µM
same,TGI,T-47D breast,3.49 µM
same,TGI,UACC-257 melanoma,1.88 µM
same,TGI,SK-MEL-2 melanoma,12.8 µM
same,TGI,NCI/ADR-RES ovarian,8.62 µM
same,TGI,MOLT-4 leukemia,2.08 µM
same,TGI,KM12 colon,17.4 µM
same,TGI,NCI-H522 lung,12.9 µM
same,TGI,MDA-N,20.1 µM
same,TGI,IGROV1 ovarian,12.1 µM
same,TGI,HS 578T breast,65.3 µM
same,TGI,RPMI-8226 leukemia,> 55.8 µM
same,TGI,MALME-3M melanoma,15.9 µM
same,TGI,ACHN renal,10.3 µM
same,TGI,EKVX NSCLC,6.46 µM
same,TGI,HOP-92 NSCLC,17 µM
same,TGI,SK-OV-3 ovarian,14.8 µM
same,TGI,NCI-H226 lung,2.47 µM
same,TGI,OVCAR-8 ovarian,9.32 µM
same,TGI,BT-549 breast,16 µM
same,TGI,HT29 colon,31.8 µM
same,TGI,A498 renal,12.3 µM
same,TGI,OVCAR-5 ovarian,10.7 µM
same,TGI,SK-MEL-28 melanoma,23.1 µM
same,TGI,SF-539 CNS,8.15 µM
same,TGI,HCC-2998 colon,26 µM
same,TGI,UACC-62 melanoma,5.99 µM
same,TGI,K-562 leukemia,3.4 µM
same,TGI,SF-295 CNS,5.63 µM
same,TGI,TK-10 renal,4.27 µM
same,TGI,SW-620 colon,29.2 µM
same,TGI,UO-31 renal,15.6 µM
same,TGI,MDA-MB-435,15.5 µM
same,TGI,NCI-H460 lung,7.61 µM
same,TGI,CAKI-1 renal,19.5 µM
